Results on 15 molecules are retold here after PubChem BioAssay (NCI).

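All cell lines were grown in 96-well plates and treated with compound for 48 hours. GI50 = concentration required for 50% inhibition of growth. TGI marks complete inhibition of growth.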

Some test systems named below: RXF 393 renal; CCRF-CEM leukemia; HOP-62 NSCLC; HL-60(TB) leukemia; 786-0 renal; NCI/ADR-RES ovarian; NCI-H23 lung; UACC-62 melanoma.
Common to all, as to experiment: DTP human tumour cell line panel, 48 h

One may read the GI50 as the concentration that inhibits growth by half. By TGI is commonly meant the concentration giving total growth inhibition. On to `COc1cc(-c2ncn(/C=C\c3nnco3)n2)cc(C(F)(F)F)c1`, for which the GI50 in the test on RXF 393 renal was 0.0307 µM; in the test on CCRF-CEM leukemia, 0.194 µM; in the test on HOP-62 NSCLC, 0.403 µM; in the test on HL-60(TB) leukemia it was 0.0809 µM; with 786-0 renal, 0.465 µM; in the test with NCI/ADR-RES ovarian it was 0.2 µM. The values for the GI50 in the test on NCI-H23 lung and in the test on UACC-62 melanoma were 0.132 µM and 0.354 µM, respectively. The TGI was 0.198 µM with RXF 393 renal; more than 100 µM in the test on CCRF-CEM leukemia; more than 47 µM in the test with HOP-62 NSCLC; 13.1 µM with HL-60(TB) leukemia; more than 51.9 µM with 786-0 renal; more than 100 µM in the test with NCI/ADR-RES ovarian. For the same molecule, the results for the TGI in the test with NCI-H23 lung and in the test on UACC-62 melanoma were more than 64.8 µM and 13.8 µM, respectively.
On to `COc1ccc(/C=N\Nc2nc(SCC(C)C)nc(-c3ccc(OC)cc3)c2C#N)cc1`, for which the GI50 in the test with RXF 393 renal was 2.81 µM; in the test on CCRF-CEM leukemia, 9.78 µM; in the test with HOP-62 NSCLC, 0.414 µM; in the test on HL-60(TB) leukemia, more than 100 µM; in the test on 786-0 renal it was 1.86 µM; in the test on NCI/ADR-RES ovarian it was 10.8 µM. The GI50 in the test on NCI-H23 lung is 12.2 µM; in the test on UACC-62 melanoma, 25.2 µM. In addition, the TGI in the test on RXF 393 renal was 15.8 µM; in the test with CCRF-CEM leukemia, more than 100 µM; in the test on HOP-62 NSCLC, 10.8 µM; with HL-60(TB) leukemia, more than 100 µM; in the test with 786-0 renal it was 9.33 µM; with NCI/ADR-RES ovarian, 85.4 µM. Moreover, the TGI in the test on NCI-H23 lung was 31.7 µM; in the test on UACC-62 melanoma, more than 100 µM.
Take `COC1=C(OC)[C@]2(OC)c3c(O)c(OC)c4c(c3O[C@@]23O[C@@H](c2ccccc2)CC=C3C1=O)[C@@H](OC)C[C@H](c1ccccc1)O4`: the GI50 in the test with RXF 393 renal was 1.35 µM; in the test on CCRF-CEM leukemia it was 0.0173 µM; in the test with HOP-62 NSCLC it was 2.33 µM; in the test with HL-60(TB) leukemia it was 0.53 µM; in the test on 786-0 renal, 0.292 µM; with NCI/ADR-RES ovarian, 0.607 µM. Besides, the concentration for 50% growth inhibition (GI50) was 0.277 µM in the test with NCI-H23 lung and 1.82 µM in the test with UACC-62 melanoma. Also, the TGI in the test on RXF 393 renal turned out to be 3.17 µM; in the test with CCRF-CEM leukemia, 0.0631 µM; in the test with HOP-62 NSCLC, 5.61 µM; in the test on HL-60(TB) leukemia, 1.4 µM; in the test with 786-0 renal, 0.801 µM; with NCI/ADR-RES ovarian, 3.74 µM. Besides, the TGI came out at 1.01 µM with NCI-H23 lung and 3.83 µM in the test with UACC-62 melanoma.
On to `COc1ccc(OC)c(Cc2cnc3nc(N)nc(N)c3c2C)c1`, for which the TGI is 21.9 µM in the test on RXF 393 renal; 29.4 µM in the test with CCRF-CEM leukemia; 17.3 µM in the test with HOP-62 NSCLC; 18.7 µM in the test on HL-60(TB) leukemia; 30.2 µM in the test with 786-0 renal; more than 100 µM with NCI/ADR-RES ovarian. The TGI in the test with NCI-H23 lung was more than 50.1 µM; in the test on UACC-62 melanoma, more than 71.2 µM.
In the case of `CC1CCN(CCOc2ccc(CNc3ccc4nc(CCC5CCCCC5)[nH]c4c3)cc2)CC1`, the GI50 was 1.33 µM with RXF 393 renal; 1.72 µM in the test with CCRF-CEM leukemia; 1.68 µM in the test on HOP-62 NSCLC; 1.83 µM in the test on HL-60(TB) leukemia; 1.43 µM in the test on 786-0 renal; 1.81 µM with NCI/ADR-RES ovarian. Also, the figures for the GI50 in the test with NCI-H23 lung and in the test with UACC-62 melanoma were 1.89 µM and 1.9 µM, respectively. Besides, the TGI with RXF 393 renal was found to be 2.84 µM; in the test on CCRF-CEM leukemia it was 6.41 µM; with HOP-62 NSCLC it was 3.21 µM; in the test on HL-60(TB) leukemia it was 3.99 µM; in the test on 786-0 renal, 2.79 µM; with NCI/ADR-RES ovarian it was 4.12 µM. Besides, the TGI is 3.98 µM with NCI-H23 lung and 3.36 µM in the test on UACC-62 melanoma.
For the molecule `CN1CCCC1c1cccnc1.O=C(O)c1ccccc1O.O=C([O-])c1ccccc1[OH2+].O=C([O-])c1ccccc1[OH2+].[Mn+2]` (stereo not given), the GI50 in the test with RXF 393 renal is more than 100 µM; in the test on CCRF-CEM leukemia, 24.8 µM; with HOP-62 NSCLC, more than 100 µM; in the test with HL-60(TB) leukemia, more than 100 µM; with 786-0 renal, more than 100 µM; with NCI/ADR-RES ovarian it was more than 100 µM. For the same molecule, the GI50 in the test on NCI-H23 lung and with UACC-62 melanoma was more than 100 µM throughout. Further, the TGI was more than 100 µM in the test on RXF 393 renal; 97.8 µM with CCRF-CEM leukemia; more than 100 µM with HOP-62 NSCLC; more than 100 µM in the test with HL-60(TB) leukemia; more than 100 µM in the test with 786-0 renal; more than 100 µM in the test on NCI/ADR-RES ovarian. Also, the TGI with NCI-H23 lung and in the test on UACC-62 melanoma was more than 100 µM each time.
Regarding `N#Cc1cccc(Nc2ncc(-c3ccccc3)o2)c1`, the GI50 with RXF 393 renal was 5.55 µM; with CCRF-CEM leukemia it was 20.8 µM; with HOP-62 NSCLC, 6.69 µM; with HL-60(TB) leukemia, 11 µM; in the test on 786-0 renal, 12.9 µM; in the test with NCI/ADR-RES ovarian, 19.2 µM. The GI50 in the test with NCI-H23 lung is more than 22.8 µM; with UACC-62 melanoma, 13.1 µM. The TGI with RXF 393 renal is 15.8 µM; in the test with CCRF-CEM leukemia, more than 25 µM; with HOP-62 NSCLC it was more than 17.8 µM; with HL-60(TB) leukemia, more than 25 µM; in the test with 786-0 renal, more than 25 µM; in the test with NCI/ADR-RES ovarian, more than 25 µM. Further, the TGI in the test on NCI-H23 lung and in the test with UACC-62 melanoma was more than 25 µM each time.
As for `N#C/C(=C\c1cc2ccc(N3CCC3)cc2oc1=O)C(=O)N(CC(=O)O)CC(=O)O`, the GI50 in the test with RXF 393 renal, with CCRF-CEM leukemia, in the test with HOP-62 NSCLC, in the test on HL-60(TB) leukemia, with 786-0 renal and in the test on NCI/ADR-RES ovarian was more than 100 µM each time. Moreover, the GI50 with NCI-H23 lung and in the test on UACC-62 melanoma was more than 100 µM in each case. The TGI in the test on RXF 393 renal, in the test with CCRF-CEM leukemia, with HOP-62 NSCLC, in the test on HL-60(TB) leukemia, in the test with 786-0 renal and in the test on NCI/ADR-RES ovarian was more than 100 µM in each case. Moreover, the TGI in the test on NCI-H23 lung and with UACC-62 melanoma was more than 100 µM each time.
For the molecule `CN1C(=NCCO)NS(=O)(=O)c2ccccc21`, the TGI with RXF 393 renal, in the test on CCRF-CEM leukemia, in the test with HOP-62 NSCLC, in the test with HL-60(TB) leukemia, in the test with 786-0 renal and in the test on NCI/ADR-RES ovarian was more than 100 µM each time. In addition, the TGI in the test with NCI-H23 lung and with UACC-62 melanoma was more than 100 µM throughout.
Take `O=C(c1ccco1)c1c(C(F)(F)F)n([O-])c2cc(F)c(F)cc2[n+]1=O`: the GI50 with RXF 393 renal is 0.193 µM; in the test on HOP-62 NSCLC, 0.348 µM; in the test on HL-60(TB) leukemia, 0.4 µM; with 786-0 renal, 0.0512 µM; in the test on NCI/ADR-RES ovarian, 0.0648 µM; with NCI-H23 lung, 0.497 µM. The GI50 with UACC-62 melanoma is 0.242 µM. Further, the TGI in the test on RXF 393 renal was 0.531 µM; with CCRF-CEM leukemia, more than 23 µM; in the test with HOP-62 NSCLC, 0.85 µM; with HL-60(TB) leukemia, 2.74 µM; in the test with 786-0 renal it was 0.137 µM; with NCI/ADR-RES ovarian, 0.179 µM. Besides, the TGI with NCI-H23 lung stood at 1.86 µM; with UACC-62 melanoma, 0.76 µM.
With `CCn1ccnc1C(=O)/C=C/c1ccc(CC(=O)Nc2ccc(F)cc2)cc1`, the GI50 is 3.39 µM with RXF 393 renal; 4.35 µM in the test with CCRF-CEM leukemia; 3.92 µM in the test with HOP-62 NSCLC; 3.18 µM in the test with HL-60(TB) leukemia; 4.36 µM with 786-0 renal; 5.37 µM in the test with NCI/ADR-RES ovarian. In addition, the GI50 is 4.25 µM in the test with NCI-H23 lung and 2.83 µM in the test with UACC-62 melanoma. Further, the TGI was 8.66 µM with RXF 393 renal; 16.3 µM with CCRF-CEM leukemia; 9.93 µM in the test on HOP-62 NSCLC; 10.9 µM with HL-60(TB) leukemia; more than 16.7 µM in the test with 786-0 renal; more than 16.7 µM with NCI/ADR-RES ovarian. Further, the figures for the concentration for total growth inhibition (TGI) in the test with NCI-H23 lung and with UACC-62 melanoma were more than 16.7 µM and 6.57 µM, respectively.
On to `O=c1[nH]c(=S)[nH]c(-c2ccccc2)c1Cc1c(O)ccc2ccccc12`, for which the concentration for total growth inhibition (TGI) in the test on RXF 393 renal was 95.1 µM; with CCRF-CEM leukemia, 41 µM; in the test on HOP-62 NSCLC it was more than 100 µM; in the test on HL-60(TB) leukemia, 50.5 µM; with 786-0 renal, more than 100 µM; with NCI/ADR-RES ovarian, more than 100 µM. For the same molecule, the TGI in the test on NCI-H23 lung came to 90.6 µM; in the test on UACC-62 melanoma, 52.4 µM.
For the molecule `Nc1nc(C(=O)O)c(N=Nc2ccccc2)c(=O)[nH]1`, the TGI in the test with RXF 393 renal, in the test on CCRF-CEM leukemia, in the test with HOP-62 NSCLC, in the test with HL-60(TB) leukemia, with 786-0 renal and in the test on NCI/ADR-RES ovarian was more than 100 µM throughout. Also, the TGI in the test with NCI-H23 lung and in the test on UACC-62 melanoma was more than 100 µM in each case.
Regarding `O=S(=O)(NCCCNc1nccc(-c2c(-c3ccc(F)cc3)nc3sccn23)n1)c1ccc(F)cc1`, the GI50 with RXF 393 renal is 3.67 µM; in the test on CCRF-CEM leukemia, 3.91 µM; in the test with HOP-62 NSCLC, 24.8 µM; in the test on HL-60(TB) leukemia, 8.38 µM; in the test on 786-0 renal, 11 µM; in the test with NCI/ADR-RES ovarian it was 6.6 µM. Besides, the values for the GI50 in the test on NCI-H23 lung and in the test on UACC-62 melanoma were 17.8 µM and 4.68 µM, respectively. The TGI in the test with RXF 393 renal was 70.8 µM; in the test on CCRF-CEM leukemia it was more than 100 µM; in the test on HOP-62 NSCLC it was more than 100 µM; with HL-60(TB) leukemia, more than 100 µM; in the test with 786-0 renal it was more than 100 µM; in the test with NCI/ADR-RES ovarian it was more than 100 µM. The TGI in the test on NCI-H23 lung was more than 100 µM; with UACC-62 melanoma it was 50.7 µM.
Take `CC1CCC2C(CN(CC3=C(C(F)(F)F)OC4OC5(C)CCC6C(C)CCC3C46OO5)CC3=C(C(F)(F)F)OC4OC5(C)CCC6C(C)CCC3C46OO5)=C(C(F)(F)F)OC3OC4(C)CCC1C32OO4` (stereo not given): the GI50 in the test with RXF 393 renal was 2.45 µM; in the test with CCRF-CEM leukemia it was 4.8 µM; in the test on HOP-62 NSCLC, 28.3 µM; with HL-60(TB) leukemia it was 3.12 µM; in the test on 786-0 renal, 8.48 µM; in the test with NCI/ADR-RES ovarian it was 26.8 µM. Also, the GI50 in the test with NCI-H23 lung is 6.04 µM. In addition, the TGI in the test on RXF 393 renal was 22.4 µM; with CCRF-CEM leukemia it was 28 µM; with HOP-62 NSCLC it was 71.9 µM; with HL-60(TB) leukemia, 10.7 µM; in the test on 786-0 renal it was 21.9 µM; in the test with NCI/ADR-RES ovarian, 73.2 µM. In addition, in the test with NCI-H23 lung, the TGI turned out to be 19.7 µM.
